Laboratory results as given in patent publication US20240166596A1, “SULFAMOYL BENZENE DERIVATIVES AND USES THEREOF” (AphioTx Inc., priority 2021, published 2024).

Molecular target: T1, rPanx1 (Rattus norvegicus Pannexin-1) expressed in 293T cells (Rattus norvegicus, UniProt P60570)
T1 construct: expressed in transfected cells; host or cells: Human embryonic kidney-293T cells (ATCC), transient Lipofectamine 2000 transfection
Assay: Whole-cell patch-clamp of Panx1 currents in transfected 293T cells
Type: cell-based, Homo sapiens
Details: voltage ramp -80 to +80 mV, various doses
Method: To further compare the effects of probenecid, Compounds 1 and 5 on Pannexin-1 channels […] Panx-1 was expressed in embryonic kidney-293T cells (293T) and channel activity was assessed at various doses of each compound.
Rattus norvegicus Pannexin-1 (rPanx1) complementary DNA (cDNA) was cloned between BamHI and SalI sites in a pRK5 expression vector (pRK5-rPanx1). Enhanced green fluorescent protein (EGFP) plasmid (pEGFP-C1) was commercially purchased (addgene).
Human embryonic kidney-293T cells (293T) were purchased from ATCC and routinely maintained in the laboratory. Adherent 293T cells were grown in Dulbecco's modified Eagle's medium (Thermo Fisher) supplemented with 10% fetal bovine serum (Thermo Fisher) and 1% penicillin-streptomycin (10,000 U/mL; Thermo Fisher) at 37° C. in a 5% CO2 humidified growth incubator. 293T cells between the passages 6-20 were used for experiments. For patch-clamp recordings, 293T cells reaching 40-60% confluency on 35 mm culture plates were transiently transfected using Lipofectamine 2000 (Thermo Fisher) 36-48 hours before experiments, using the manufacturer's protocol. 293T cells were transfected with 2.5 μg pRK5-rPanx1 and 0.5 μg pEGFP-C1 cDNAs at a mixed ratio of 5:1 to identify positively transfected cells.
On the day of experiments, transiently transfected 293T cells overexpressing rPanx1 and EGFP cDNAs were seeded onto poly-d-lysine coated glass coverslips at least 2 hours before recordings. […] Data was acquired using Clampex (v.10) software and an Axon Digidata 1550A digitizer (Axon Instruments) at 10 kHz, with currents analyzed offline in Clampfit software (v.10.7). […]
293T cells were voltage clamped at −60 mV in whole-cell configuration and exposed to a 300 ms voltage ramp (−80 to +80 mV) before stepping back to −60 mV to record rPanx1 voltage-sensitive currents. Baseline currents were first measured in extracellular solution before perfusion of drug compounds in incrementally increasing concentrations. […]

T1 sequence (P60570 whole entry): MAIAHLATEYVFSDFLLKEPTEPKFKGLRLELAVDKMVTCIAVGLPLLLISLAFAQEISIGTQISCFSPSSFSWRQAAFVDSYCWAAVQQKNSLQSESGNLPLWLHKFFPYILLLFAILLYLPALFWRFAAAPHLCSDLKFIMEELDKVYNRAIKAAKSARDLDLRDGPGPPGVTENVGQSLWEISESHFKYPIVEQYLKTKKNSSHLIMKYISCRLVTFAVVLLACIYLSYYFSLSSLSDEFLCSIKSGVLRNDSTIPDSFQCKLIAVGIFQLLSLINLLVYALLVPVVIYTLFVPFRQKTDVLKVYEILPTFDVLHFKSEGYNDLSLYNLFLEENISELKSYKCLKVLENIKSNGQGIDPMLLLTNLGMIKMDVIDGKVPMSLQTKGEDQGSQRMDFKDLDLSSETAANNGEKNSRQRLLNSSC

Question: For `CCCN(CCC)S(=O)(=O)c1ccc(C(O)(C(F)(F)F)C(F)(F)F)cc1` [Compound 1, 4-(1,1,1,3,3,3-hexafluoro-2-hydroxypropan-2-yl)-N,N-dipropylbenzenesulfonamide], which “Panx1 inhibitory potency relative to Probenecid (patch-clamp)” value is on record?
Answer: Its value is “more potent”.
